In patent publication US10202387B2, “Heterocyclyl linked imidazopyridazine derivatives as PI3KB inhibitors” (Janssen Pharmaceutica NV, priority 2014, dated 2019):

Legend:
[1] = target: T1, PIK3Cγ_h (Homo sapiens, UniProt P48736); experiment: Enzyme binding assay (KINOMEscan); conditions: DiscoveRx
T1 construct: purchased DiscoveRx Corporation, San Diego (KINOMEscan service)
Experimental: (§1) Enzyme Binding Assays (KINOMEscan®)
(§2) Kinase enzyme binding affinities of compounds disclosed herein were determined using the KINOMEscan technology performed by DiscoveRx Corporation, San Diego, Calif., USA (www.kinomescan.com). Table A reports the obtained Kd values (nM), with the Kd being the inhibitor binding constant: […]

[2] = target: T2, MTOR_h (Homo sapiens, UniProt P42345); experiment: Enzyme binding assay (KINOMEscan); conditions: DiscoveRx
T2 construct: purchased DiscoveRx Corporation, San Diego (KINOMEscan service)
Experimental: as §1, §2

[3] = target: T3, PIK3Cα_h (Homo sapiens, UniProt P42336); experiment: Enzyme binding assay (KINOMEscan); conditions: DiscoveRx
T3 construct: purchased DiscoveRx Corporation, San Diego (KINOMEscan service)
Experimental: as §1, §2

[4] = target: T4, PIK3Cδ_h (Homo sapiens, UniProt O00329); experiment: Enzyme binding assay (KINOMEscan); conditions: DiscoveRx
T4 construct: purchased DiscoveRx Corporation, San Diego (KINOMEscan service)
T4 sequence (O00329 1-1044): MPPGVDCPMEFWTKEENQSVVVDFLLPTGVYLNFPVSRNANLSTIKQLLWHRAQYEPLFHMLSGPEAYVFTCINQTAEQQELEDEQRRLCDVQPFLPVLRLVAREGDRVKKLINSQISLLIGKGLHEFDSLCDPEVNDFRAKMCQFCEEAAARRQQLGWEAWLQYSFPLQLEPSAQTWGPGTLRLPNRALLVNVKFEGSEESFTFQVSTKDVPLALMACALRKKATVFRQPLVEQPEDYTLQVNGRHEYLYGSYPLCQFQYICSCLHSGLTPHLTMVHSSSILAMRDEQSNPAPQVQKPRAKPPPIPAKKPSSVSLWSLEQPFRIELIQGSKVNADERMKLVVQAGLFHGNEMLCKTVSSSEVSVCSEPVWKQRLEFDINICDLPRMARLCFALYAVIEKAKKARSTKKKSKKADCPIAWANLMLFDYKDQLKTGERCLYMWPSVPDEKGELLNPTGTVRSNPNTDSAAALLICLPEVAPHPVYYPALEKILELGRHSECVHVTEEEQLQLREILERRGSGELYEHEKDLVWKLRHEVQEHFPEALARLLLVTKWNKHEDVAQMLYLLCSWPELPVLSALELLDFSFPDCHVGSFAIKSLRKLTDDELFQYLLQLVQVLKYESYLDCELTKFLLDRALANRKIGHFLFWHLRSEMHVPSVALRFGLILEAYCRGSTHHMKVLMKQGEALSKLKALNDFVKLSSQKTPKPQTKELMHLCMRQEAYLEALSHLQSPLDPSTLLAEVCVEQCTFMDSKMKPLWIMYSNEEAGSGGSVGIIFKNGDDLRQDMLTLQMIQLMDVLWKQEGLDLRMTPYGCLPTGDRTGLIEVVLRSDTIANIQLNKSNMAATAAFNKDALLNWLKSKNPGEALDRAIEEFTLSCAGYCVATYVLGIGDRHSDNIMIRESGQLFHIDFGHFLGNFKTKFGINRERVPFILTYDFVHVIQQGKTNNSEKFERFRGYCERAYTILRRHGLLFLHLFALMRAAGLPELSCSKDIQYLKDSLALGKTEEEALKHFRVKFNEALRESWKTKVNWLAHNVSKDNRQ
Experimental: as §1, §2

[5] = target: T5, PIK3Cβ_h (Homo sapiens, UniProt P42338); experiment: Enzyme binding assay (KINOMEscan); conditions: DiscoveRx
T5 construct: purchased DiscoveRx Corporation, San Diego (KINOMEscan service)
Experimental: as §1, §2

[6] = test system: Akt phosphorylated at Thr308 in PC-3 cells; experiment: Cellular assay: phosphorylation of Akt (Thr308) in PC-3 cells, MSD ELISA; type: cell-based; conditions: Homo sapiens, 1 h, 60 min incubation with compound, read-out: IC50 pAkt_Thr308
Experimental: (§3) Cellular activity of PI3Kβ inhibitors was determined by quantifying the phosphorylation of Akt in PC-3 cells. Akt phosphorylated at Ser473 and Thr308 were measured using an enzyme-linked immunosorbent assay (ELISA; Meso Scale Discovery (MSD). Gaithersburg, Md.) and specific primary antibodies from MSD.
(§4) On day 1, PC3 cells (ATCC […]) were seeded into PerkinElmer MW96 plates at 25.000 cells per well, in 75 μl complete culture medium (DMEM (Dulbecco's Modified Eagle's Medium) high glucose. AQmedia™, D0819, Sigma-Aldrich) containing 10% heat inactivated FCS (Fetal Bovine Serum) and incubated at 37° C., 5% CO2 during 24 hours. On day 2, compound or DMSO (dimethyl sulfoxide) (0.3%) was added and cells were further incubated for 60 min at 37° C., 5% CO2 in a total volume of 100 μl of medium.
(§5) The phosphoprotein assay was executed according to vendor instructions in the Phospho-Akt (Ser473) Assay Whole Cell Lysate Kit (MSD #K15100D-3) and the Phospho-Akt (Thr308) Assay Whole Cell Lysate Kit (MSD #K151DYD-3) using the lysis, blocking and wash buffer provided.
(§6) Briefly, at the end of the cell treatment period, media were removed by aspiration and adherent cells were lysed in 50 μl ice-cold lysis buffer. MSD plates are supplied pre-coated with capture antibodies for Phospho-Akt (Ser473 and Thr308). After blocking, lysates from tissue culture plates were added and plates were washed. Then, a solution containing the detection antibody (anti-total Akt conjugated with an electrochemiluminescent compound-MSD Sulfo-tag label) was added. The signals were detected using an MSD SECTOR Imager 6000 and are proportional to the phospho-Akt titres.
(§7) Data were processed. The percentage of inhibition was plotted against the log concentration of test compounds, and the sigmoidal log concentration-effect curve of best fit was calculated by nonlinear regression analysis. From these concentration-response curves, the IC50 values were calculated. Five concentrations were used for curve fitting.

[7] = test system: Akt phosphorylated at Ser473 in PC-3 cells; experiment: Cellular assay: phosphorylation of Akt (Ser473) in PC-3 cells, MSD ELISA; type: cell-based; conditions: Homo sapiens, 1 h, 60 min incubation with compound, read-out: IC50 pAkt_S473
Experimental: as §3, §4, §5, §6, §7

T3 sequence (P42336 whole entry): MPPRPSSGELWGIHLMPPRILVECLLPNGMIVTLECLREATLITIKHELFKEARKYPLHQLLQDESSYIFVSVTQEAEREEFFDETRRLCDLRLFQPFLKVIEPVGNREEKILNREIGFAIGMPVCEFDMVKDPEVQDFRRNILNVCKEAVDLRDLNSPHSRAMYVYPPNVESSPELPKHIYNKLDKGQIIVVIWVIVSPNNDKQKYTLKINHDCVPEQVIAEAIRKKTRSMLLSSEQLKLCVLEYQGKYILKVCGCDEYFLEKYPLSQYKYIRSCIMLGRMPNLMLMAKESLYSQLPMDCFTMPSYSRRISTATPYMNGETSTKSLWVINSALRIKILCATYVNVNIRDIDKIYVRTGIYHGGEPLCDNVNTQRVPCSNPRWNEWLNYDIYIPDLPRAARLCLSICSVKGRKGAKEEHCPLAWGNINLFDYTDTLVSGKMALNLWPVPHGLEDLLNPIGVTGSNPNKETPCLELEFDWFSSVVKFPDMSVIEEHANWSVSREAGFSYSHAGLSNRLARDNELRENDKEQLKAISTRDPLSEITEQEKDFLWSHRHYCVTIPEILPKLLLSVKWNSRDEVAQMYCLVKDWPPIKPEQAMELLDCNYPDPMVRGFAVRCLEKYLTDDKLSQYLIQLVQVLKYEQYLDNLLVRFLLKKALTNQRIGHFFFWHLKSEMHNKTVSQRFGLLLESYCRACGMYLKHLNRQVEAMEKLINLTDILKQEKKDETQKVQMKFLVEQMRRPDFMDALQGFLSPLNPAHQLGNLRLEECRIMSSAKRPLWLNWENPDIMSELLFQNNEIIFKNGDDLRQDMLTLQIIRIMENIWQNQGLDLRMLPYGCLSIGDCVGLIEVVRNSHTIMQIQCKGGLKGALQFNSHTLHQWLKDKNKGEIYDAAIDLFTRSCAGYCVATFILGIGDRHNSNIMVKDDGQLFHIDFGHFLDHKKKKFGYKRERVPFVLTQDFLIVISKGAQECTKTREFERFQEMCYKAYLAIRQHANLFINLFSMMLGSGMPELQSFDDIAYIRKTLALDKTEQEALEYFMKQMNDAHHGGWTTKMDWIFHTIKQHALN
T5 sequence (P42338 whole entry): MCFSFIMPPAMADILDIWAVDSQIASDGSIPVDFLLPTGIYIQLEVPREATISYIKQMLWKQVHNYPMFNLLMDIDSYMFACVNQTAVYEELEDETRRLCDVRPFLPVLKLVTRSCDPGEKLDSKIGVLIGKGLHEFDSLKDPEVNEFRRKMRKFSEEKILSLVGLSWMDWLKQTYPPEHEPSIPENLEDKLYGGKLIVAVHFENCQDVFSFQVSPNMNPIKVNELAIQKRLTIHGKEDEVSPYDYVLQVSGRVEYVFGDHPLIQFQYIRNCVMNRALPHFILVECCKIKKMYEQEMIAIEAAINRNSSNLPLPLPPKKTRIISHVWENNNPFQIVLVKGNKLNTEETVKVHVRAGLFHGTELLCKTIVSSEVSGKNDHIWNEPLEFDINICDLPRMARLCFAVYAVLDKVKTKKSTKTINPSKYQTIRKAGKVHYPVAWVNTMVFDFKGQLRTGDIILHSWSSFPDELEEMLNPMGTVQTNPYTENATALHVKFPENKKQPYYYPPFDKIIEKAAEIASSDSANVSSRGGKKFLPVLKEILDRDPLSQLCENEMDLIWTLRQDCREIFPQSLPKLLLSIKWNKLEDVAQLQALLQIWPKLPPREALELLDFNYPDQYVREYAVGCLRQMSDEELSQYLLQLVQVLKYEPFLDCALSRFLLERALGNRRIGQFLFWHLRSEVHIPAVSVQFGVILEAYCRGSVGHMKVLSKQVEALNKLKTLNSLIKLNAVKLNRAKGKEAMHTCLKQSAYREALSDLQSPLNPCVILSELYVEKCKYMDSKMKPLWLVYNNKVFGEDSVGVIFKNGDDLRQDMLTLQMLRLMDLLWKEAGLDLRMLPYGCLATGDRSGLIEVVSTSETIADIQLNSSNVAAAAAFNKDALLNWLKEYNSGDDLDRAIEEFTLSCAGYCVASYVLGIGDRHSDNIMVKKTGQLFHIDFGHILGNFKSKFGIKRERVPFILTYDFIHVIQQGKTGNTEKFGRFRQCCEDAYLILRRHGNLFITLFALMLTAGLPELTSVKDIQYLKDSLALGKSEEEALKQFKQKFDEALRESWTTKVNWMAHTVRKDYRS
T1 sequence (P48736 whole entry): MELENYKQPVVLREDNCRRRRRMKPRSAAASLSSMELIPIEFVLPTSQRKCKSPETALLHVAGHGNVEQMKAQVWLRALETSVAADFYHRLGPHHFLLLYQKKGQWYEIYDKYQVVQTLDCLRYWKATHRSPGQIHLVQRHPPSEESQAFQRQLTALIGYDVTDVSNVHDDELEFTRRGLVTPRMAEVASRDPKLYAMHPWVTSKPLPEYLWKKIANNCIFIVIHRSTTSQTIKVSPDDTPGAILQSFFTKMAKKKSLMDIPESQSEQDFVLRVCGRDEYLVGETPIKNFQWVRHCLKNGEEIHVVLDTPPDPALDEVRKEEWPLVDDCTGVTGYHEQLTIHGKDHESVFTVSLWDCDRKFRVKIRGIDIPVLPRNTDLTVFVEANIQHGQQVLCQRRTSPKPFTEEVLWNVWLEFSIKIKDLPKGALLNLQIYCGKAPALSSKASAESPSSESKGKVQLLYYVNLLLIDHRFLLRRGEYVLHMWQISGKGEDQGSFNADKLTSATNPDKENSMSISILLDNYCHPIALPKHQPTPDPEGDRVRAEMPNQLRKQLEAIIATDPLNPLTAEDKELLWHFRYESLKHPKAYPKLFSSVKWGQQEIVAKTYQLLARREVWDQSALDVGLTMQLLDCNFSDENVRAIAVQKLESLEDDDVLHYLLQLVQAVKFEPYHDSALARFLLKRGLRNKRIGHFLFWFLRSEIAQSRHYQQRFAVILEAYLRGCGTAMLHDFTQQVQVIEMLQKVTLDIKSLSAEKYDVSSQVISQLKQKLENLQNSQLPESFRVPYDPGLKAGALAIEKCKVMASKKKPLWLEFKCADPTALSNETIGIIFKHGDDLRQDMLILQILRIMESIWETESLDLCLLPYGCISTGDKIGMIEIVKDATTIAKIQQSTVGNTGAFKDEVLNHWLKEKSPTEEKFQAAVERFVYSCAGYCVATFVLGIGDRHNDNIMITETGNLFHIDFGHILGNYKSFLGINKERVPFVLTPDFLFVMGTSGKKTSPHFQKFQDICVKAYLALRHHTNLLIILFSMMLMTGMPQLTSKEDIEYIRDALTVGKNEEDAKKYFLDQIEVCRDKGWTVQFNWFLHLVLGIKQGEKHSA

Structure (SMILES) | melting point [°C] | Kd [1] [µM] | Kd [2] [µM] | Kd [3] [µM] | Kd [4] [µM] | Kd [5] [µM] | IC50 [6] [µM] | IC50 [7] [µM]
Cc1c(Cc2c(COC(=O)CN3CCN(C)CC3)nc3c(N)cc(N4CCOCC4)nn23)cccc1C(F)(F)F [Compound 40b] | 99 | > 30.2 | 21.9 | 25.1 | 0.479 | 0.0028 | 0.105 | 0.214
Cc1c(F)cccc1Cc1c(CN2CCS(=O)(=O)CC2)nc2c(N)cc(N3CCOCC3)nn12 [Compound 43] | 130 | > 30.2 | 1.38 | 2.04 | 0.062 | 0.0004 | 0.017 | 0.01
CCc1c(F)cccc1Cc1c(CN2CCS(=O)(=O)CC2)nc2c(N)cc(N3CCOCC3)nn12 [Compound 45] | 240 | > 30.2 | 2 | 2.4 | 0.178 | 0.0011 | > 0.513 | > 0.513

Stronger by Kd [1], values ahead:

melting point [°C] | Kd [1] [µM] | Kd [2] [µM] | Kd [3] [µM] | Kd [4] [µM] | Kd [5] [µM] | IC50 [6] [µM] | IC50 [7] [µM] | Structure (SMILES)
214 | 2.69 | 1.23 | 4.47 | 0.123 | 0.0011 | 0.055 | 0.117 | Cc1c(F)cccc1Cc1c(CN2CC(O)C2)nc2c(N)cc(N3CCOCC3)nn12 [Compound 42]
172 | 0.537 | 1.05 | 1.7 | 0.275 | 0.0054 | 0.145 | 0.316 | CCc1c(F)cccc1Cc1c(CN2CC(O)C2)nc2c(N)cc(N3CCOCC3)nn12 [Compound 44]
